Among the data in patent US20230416205A1, “COMPOUNDS, COMPOSITIONS, AND METHODS” (Denali Therapeutics Inc, priority 2020, published 2023) are IC50 values, retold here.

What is called IC50 is the concentration needed to halve the response being measured.

This assay deals with NLRP3. Nature of the assay: IL-1β secretion assay in PMA-differentiated, LPS/nigericin-stimulated THP-1 cells (384-well, ELISA read-out). The following applies: Homo sapiens, THP-1, Table 4; IL-1β secretion, LPS/nigericin-stimulated THP-1 cells; read-out: IC50. The assay is classed as cell-based, human. In a few lines: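 THP-1 cells differentiated with PMA (5 ng/mL, 40 h), primed in serum-free medium with 25 ng/mL LPS for 2 h, treated with compounds 1 h (0.5% DMSO), then stimulated with nigericin for 2 h at 37 °C. Supernatant IL-1β measured by ELISA; responses normalized to LPS+5 μM nigericin and LPS-only controls.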
In general terms: An ELISA detects its analyte on a solid surface through an enzyme-linked reagent.
As for `Cc1nc(NC(=O)CN2CC3(CC3)c3cc(Br)ccc3C2=O)nn1-c1ccccc1` [Example 412, 2-(6-bromo-1-oxospiro[3H-isoquinoline-4,1′-cyclopropane]-2-yl)-N-(5-methyl-1-phenyl-1,2,4-triazol-3-yl)acetamide], the IC50 stood at 3.17 µM. Turning to `O=C(CN1CC2(CC2)c2cc(Br)ccc2C1=O)Nc1ncn(-c2ccccc2)n1` [Example 413, 2-(6-bromo-1-oxospiro[3H-isoquinoline-4,1′-cyclopropane]-2-yl)-N-(1-phenyl-1,2,4-triazol-3-yl)acetamide], the IC50 came out at 2.02 µM. Next, `N#Cc1ccc(NC(=O)CN2CC3(CC3)c3cc(Br)ccc3C2=O)cn1` [Example 414, 2-(6-bromo-1-oxospiro[3H-isoquinoline-4,1′-cyclopropane]-2-yl)-N-(6-cyanopyridin-3-yl)acetamide]: 1.26 µM; `Cn1ccc(N2CCC(NC(=O)CN3CC4(CC4)c4cc(Br)ccc4C3=O)C2)n1` (centres unmarked) [Example 415, 2-(6-bromo-1-oxospiro[3H-isoquinoline-4,1′-cyclopropane]-2-yl)-N-[1-(1-methylpyrazol-3-yl)pyrrolidin-3-yl]acetamide]: 21 µM; `Cn1cc(N2CCC(NC(=O)CN3CC4(CC4)c4cc(Br)ccc4C3=O)C2)cn1` (centres unmarked) [Example 416, 2-(6-bromo-1-oxospiro[3H-isoquinoline-4,1′-cyclopropane]-2-yl)-N-[1-(1-methylpyrazol-4-yl)pyrrolidin-3-yl]acetamide]: 20.8 µM. For `Cn1cc(N2CCCC(NC(=O)CN3CC4(CC4)c4cc(Br)ccc4C3=O)C2)cn1` (centres unmarked) [Example 417, 2-(6-bromo-1-oxospiro[3H-isoquinoline-4,1′-cyclopropane]-2-yl)-N-[1-(1-methylpyrazol-4-yl)piperidin-3-yl]acetamide], the IC50 stood at 11.7 µM. Then `COc1ccc(NC(=O)CN2CC3(CC3)c3cc(Br)ccc3C2=O)cn1` [Example 418, 2-(6-bromo-1-oxospiro[3H-isoquinoline-4,1′-cyclopropane]-2-yl)-N-(6-methoxypyridin-3-yl)acetamide], with 3.48 µM; and `O=C(CN1CC2(CC2)c2cc(Br)ccc2C1=O)Nc1ncc(C(F)F)cc1F` [Example 419, 2-(6-bromo-1-oxospiro[3H-isoquinoline-4,1′-cyclopropane]-2-yl)-N-[5-(difluoromethyl)-3-fluoropyridin-2-yl]acetamide], with 0.769 µM; and `O=C(CN1CC2(CC2)c2cc(Br)ccc2C1=O)Nc1ccc(OC(F)F)nc1` [Example 420, 2-(6-bromo-1-oxospiro[3H-isoquinoline-4,1′-cyclopropane]-2-yl)-N-[6-(difluoromethoxy)pyridin-3-yl]acetamide], with 3.8 µM. As to `CC(C)n1cnc(NC(=O)CN2CC3(CC3)c3cc(Br)ccc3C2=O)n1` [Example 421, 2-(6-bromo-1-oxospiro[3H-isoquinoline-4,1′-cyclopropane]-2-yl)-N-(1-propan-2-yl-1,2,4-triazol-3-yl)acetamide], the concentration for half-maximal inhibition (IC50) is 2.73 µM.

With `O=C(CN1CC2(CC2)c2cc(Br)ccc2C1=O)Nc1ncn(C2CC2)n1` [Example 422, 2-(6-bromo-1-oxospiro[3H-isoquinoline-4,1′-cyclopropane]-2-yl)-N-(1-cyclopropyl-1,2,4-triazol-3-yl)acetamide], the IC50 worked out at 3.08 µM. Then `O=C(CN1CC2(CC2)c2cc(CC3CC3)ccc2C1=O)Nc1ncc(F)cn1` [Example 423, 2-[6-(cyclopropylmethyl)-1-oxospiro[3H-isoquinoline-4,1′-cyclopropane]-2-yl]-N-(5-fluoropyrimidin-2-yl)acetamide], with 18.4 µM.

For the molecule `O=C(CN1CC2(CC2)c2cc(Br)ccc2C1=O)Nc1ncc(C2=COCC2)cn1` [Example 424, 2-(6-bromo-1-oxospiro[3H-isoquinoline-4,1′-cyclopropane]-2-yl)-N-[5-(2,3-dihydrofuran-4-yl)pyrimidin-2-yl]acetamide], the IC50 stood at 0.7 µM. Then `O=C(CN1CC2(CC2)c2cc(Br)ccc2C1=O)Nc1ncn(CC(F)(F)F)n1` [Example 425, 2-(6-bromo-1-oxospiro[3H-isoquinoline-4,1′-cyclopropane]-2-yl)-N-[1-(2,2,2-trifluoroethyl)-1,2,4-triazol-3-yl]acetamide], with 2.85 µM.

Take `O=C(CN1CC2(CC2)c2cc(Br)ccc2C1=O)NC1CC(c2ccccc2)C1` (stereo not drawn) [Example 427, 2-(6-bromo-1-oxospiro[3H-isoquinoline-4,1′-cyclopropane]-2-yl)-N-(3-trans-phenylcyclobutyl)acetamide]: the IC50 was 6.28 µM. Take `O=C(CN1CC2(CC2)c2cc(Br)ccc2C1=O)Nc1nc2c(Cl)cccn2n1` [Example 429, 2-(6-bromo-1-oxospiro[3H-isoquinoline-4,1′-cyclopropane]-2-yl)-N-(8-chloro-[1,2,4]triazolo[1,5-a]pyridin-2-yl)acetamide]: the IC50 is 1.66 µM.

On to `O=C(CN1CC2(CC2)c2cc(Br)ccc2C1=O)Nc1ccc(=O)[nH]n1` [Example 430, 2-(6-bromo-1-oxospiro[3H-isoquinoline-4,1′-cyclopropane]-2-yl)-N-(6-oxo-1H-pyridazin-3-yl)acetamide], for which the IC50 was 0.634 µM.
